{"source": "patent US20230047788A1", "about": "“COMPOSITIONS COMPRISING 5-CHOLESTEN-3, 25-DIOL, 3-SULFATE (25HC3S) OR PHARMACEUTICALLY ACCEPTABLE SALT THEREOF AND AT LEAST ONE CYCLIC OLIGOSACCHARIDE” (Virginia Commonwealth University, priority 2016, published 2023)", "assay": "Infusion compatibility of constituted 25HC3S solution with 5% dextrose, 0.9% sodium chloride and two infusion sets", "assay_type": "physicochemical", "settings": "for Osmolality / pH / % Remaining Compared to T = 0 / Concentration / T = 0 Conc.: 5% dextrose bag", "method": "After constitution with Vehicle, the 30 mg/mL 25HC3S product was diluted into 100 mL of 5% dextrose injection, USP or 0.9% sodium chloride injection, USP, and was administered to subjects as an IV infusion ranging from a 30 mg to 150 mg 25HC3S dose. This was accomplished by adding 1.0 mL (for the 30 mg dose) or 5.0 mL (for the 150 mg dose), or any volume in between, of the 30 mg/mL 25HC3S product into a 100 mL dextrose or sodium chloride infusion bag. The entire admixture content in the infusion bag was infused into the subject over approximately 2 hours at a rate of 50 mL/hour.\nA physical and chemical compatibility study was conducted at a 30 mg, 48 mg and 300 mg 25HC3S dose in 5% dextrose and 0.9% sodium chloride infusion bags. Descriptions of the two kinds of infusion sets tested with 25HC3S product diluted in 5% dextrose and 0.9% sodium chloride are listed in Table 15. The tubing in catalog number 2H8480 infusion set was composed of polyvinylchloride (PVC), while the tubing in catalog number 2C8858 was polyethylene lined except for a short pump segment (approximately 12 inches) which was composed of PVC.\n25HC3S for Injection and Vehicle for 25HC3S for Injection, that had been stored at 2-8° C. for approximately 16 months, were used for the compatibility study. After constitution, 30 mg (1.0 mL of constituted product), 48 mg (1.6 mL of constituted product) or 300 mg (10 mL of constituted product) were added to 100 mL infusion bags of 5% dextrose and 0.9% sodium chloride, mixed thoroughly, and stored for 24 hours at room temperature and at 2-8° C. […] Taking into consideration the overfill per infusion bag and the additional volume introduced by adding the constituted 25HC3S product to each bag, the expected concentrations of 25HC3S were 0.28 mg/mL, 0.44 mg/mL, and 2.56 mg/mL in the infusion bags. Two kinds of infusion sets were then attached to the drug containing infusion bags, and the entire contents were eluted through the infusion sets at approximately 50 mL/hour at room temperature. Samples were collected from the 25HC3S prepared infusion bags at T=0 and at 24 hours, and from the total eluent passed through the infusion sets, and tested for 25HC3S concentration using HPLC. Solution visual appearance, osmolality (using method USP<785>), and pH (using method USP<791>) were also measured on the collected samples.", "key": {"[1]": {"settings": "5% dextrose, ~0.28 mg/mL, 24 h 2-8°C then Baxter 2C8858"}, "[2]": {"settings": "5% dextrose, ~0.28 mg/mL, 24 h 2-8°C then Baxter 2H8480"}, "[3]": {"settings": "5% dextrose, ~0.28 mg/mL, 24 h RT then Baxter 2C8858"}, "[4]": {"settings": "5% dextrose, ~0.28 mg/mL, 24 h RT then Baxter 2H8480"}, "[5]": {"settings": "5% dextrose, ~0.44 mg/mL, 24 h 2-8°C then Baxter 2C8858"}, "[6]": {"settings": "5% dextrose, ~0.44 mg/mL, 24 h 2-8°C then Baxter 2H8480"}, "[7]": {"settings": "5% dextrose, ~0.44 mg/mL, 24 h RT then Baxter 2C8858"}, "[8]": {"settings": "5% dextrose, ~0.44 mg/mL, 24 h RT then Baxter 2H8480"}, "[9]": {"settings": "5% dextrose, ~2.56 mg/mL, 24 h 2-8°C then Baxter 2C8858"}, "[10]": {"settings": "5% dextrose, ~2.56 mg/mL, 24 h 2-8°C then Baxter 2H8480"}, "[11]": {"settings": "5% dextrose, ~2.56 mg/mL, 24 h RT then Baxter 2C8858"}, "[12]": {"settings": "5% dextrose, ~2.56 mg/mL, 24 h RT then Baxter 2H8480"}}, "note": "“And” between values parts separate entries of the source, which are not always exact repeats. Identical values can stand only once."}
{"smiles": "C[C@H](CCCC(C)(C)O)[C@H]1CC[C@H]2[C@@H]3CC=C4C[C@@H](OS(=O)(=O)[O-])CC[C@]4(C)[C@H]3CC[C@]12C.[Na+]", "note": "[25HC3S, 5-cholesten-3, 25-diol, 3-sulfate]", "values": [{"measurement": "Osmolality", "setting": "~0.28 mg/mL, 24 Hours at 2-8°C", "value": "250 mmol/kg and 253 mmol/kg"}, {"measurement": "pH", "setting": "~0.28 mg/mL, 24 Hours at 2-8°C", "value": "7.09 and 7.04"}, {"measurement": "% Remaining Compared to T = 0", "setting": "~0.28 mg/mL, 24 Hours at RT", "value": "(100.0%)"}, {"measurement": "Concentration", "setting": "~0.28 mg/mL, 24 Hours at RT", "value": "276 µg/mL and 277 µg/mL"}, {"measurement": "Osmolality", "setting": "~0.28 mg/mL, 24 Hours at RT", "value": "252 mmol/kg and 249 mmol/kg"}, {"measurement": "pH", "setting": "~0.28 mg/mL, 24 Hours at RT", "value": "7.12 and 7.05"}, {"measurement": "Osmolality", "setting": "~0.28 mg/mL, T = 0", "value": "247 mmol/kg and 250 mmol/kg and 251 mmol/kg"}, {"measurement": "T = 0 Conc.", "setting": "~0.28 mg/mL, T = 0", "value": "0.276 mg/mL and 0.277 mg/mL and 0.280 mg/mL and 0.279 mg/mL"}, {"measurement": "pH", "setting": "~0.28 mg/mL, T = 0", "value": "7.09 and 7.03 and 7.10 and 7.04"}, {"measurement": "Concentration", "setting": "~0.44 mg/mL, 24 Hours at 2-8°C", "value": "438 µg/mL and 440 µg/mL"}, {"measurement": "Osmolality", "setting": "~0.44 mg/mL, 24 Hours at 2-8°C", "value": "254 mmol/kg and 257 mmol/kg"}, {"measurement": "pH", "setting": "~0.44 mg/mL, 24 Hours at 2-8°C", "value": "6.96 and 6.93"}, {"measurement": "% Remaining Compared to T = 0", "setting": "~0.44 mg/mL, 24 Hours at RT", "value": "(100.0%)"}, {"measurement": "Concentration", "setting": "~0.44 mg/mL, 24 Hours at RT", "value": "447 µg/mL and 442 µg/mL"}, {"measurement": "Osmolality", "setting": "~0.44 mg/mL, 24 Hours at RT", "value": "256 mmol/kg and 253 mmol/kg"}, {"measurement": "pH", "setting": "~0.44 mg/mL, 24 Hours at RT", "value": "6.91 and 6.90"}, {"measurement": "Osmolality", "setting": "~0.44 mg/mL, T = 0", "value": "255 mmol/kg and 254 mmol/kg and 256 mmol/kg"}, {"measurement": "T = 0 Conc.", "setting": "~0.44 mg/mL, T = 0", "value": "0.447 mg/mL and 0.442 mg/mL and 0.439 mg/mL"}, {"measurement": "pH", "setting": "~0.44 mg/mL, T = 0", "value": "6.83 and 6.81 and 6.82 and 6.88"}, {"measurement": "Concentration", "setting": "~2.56 mg/mL, 24 Hours at 2-8°C", "value": "2550 µg/mL and 2530 µg/mL"}, {"measurement": "Osmolality", "setting": "~2.56 mg/mL, 24 Hours at 2-8°C", "value": "246 mmol/kg and 251 mmol/kg"}, {"measurement": "pH", "setting": "~2.56 mg/mL, 24 Hours at 2-8°C", "value": "6.11 and 6.14"}, {"measurement": "Concentration", "setting": "~2.56 mg/mL, 24 Hours at RT", "value": "2470 µg/mL and 2520 µg/mL"}, {"measurement": "Osmolality", "setting": "~2.56 mg/mL, 24 Hours at RT", "value": "257 mmol/kg and 250 mmol/kg"}, {"measurement": "pH", "setting": "~2.56 mg/mL, 24 Hours at RT", "value": "6.12 and 6.06"}, {"measurement": "Osmolality", "setting": "~2.56 mg/mL, T = 0", "value": "258 mmol/kg and 247 mmol/kg"}, {"measurement": "T = 0 Conc.", "setting": "~2.56 mg/mL, T = 0", "value": "2.500 mg/mL and 2.510 mg/mL and 2.530 mg/mL and 2.525 mg/mL"}, {"measurement": "pH", "setting": "~2.56 mg/mL, T = 0", "value": "6.04 and 6.12 and 6.29 and 6.26"}, {"measurement": "deviation of concentrations from initial T=0 time point", "setting": "5% dextrose, 24 hours at RT and 2-8°C and after elution through infusion sets", "value": "≤ 1.4", "unit": "%"}, {"measurement": "% Remaining after infusion set", "setting": "[1]", "value": "(100.4%)"}, {"measurement": "Concentration after infusion set", "setting": "[1]", "value": 280, "unit": "µg/mL"}, {"measurement": "Osmolality after infusion set", "setting": "[1]", "value": 252, "unit": "mmol/kg"}, {"measurement": "pH after infusion set", "setting": "[1]", "value": 6.99}, {"measurement": "% Remaining after infusion set", "setting": "[2]", "value": "(100.0%)"}, {"measurement": "Concentration after infusion set", "setting": "[2]", "value": 280, "unit": "µg/mL"}, {"measurement": "Osmolality after infusion set", "setting": "[2]", "value": 251, "unit": "mmol/kg"}, {"measurement": "pH after infusion set", "setting": "[2]", "value": 6.95}, {"measurement": "% Remaining after infusion set", "setting": "[3]", "value": "(100.0%)"}, {"measurement": "Concentration after infusion set", "setting": "[3]", "value": 277, "unit": "µg/mL"}, {"measurement": "Osmolality after infusion set", "setting": "[3]", "value": 252, "unit": "mmol/kg"}, {"measurement": "pH after infusion set", "setting": "[3]", "value": 7.04}, {"measurement": "% Remaining after infusion set", "setting": "[4]", "value": "(100.0%)"}, {"measurement": "Concentration after infusion set", "setting": "[4]", "value": 276, "unit": "µg/mL"}, {"measurement": "Osmolality after infusion set", "setting": "[4]", "value": 252, "unit": "mmol/kg"}, {"measurement": "pH after infusion set", "setting": "[4]", "value": 6.99}, {"measurement": "% Remaining after infusion set", "setting": "[5]", "value": "(100.2%)"}, {"measurement": "Concentration after infusion set", "setting": "[5]", "value": 440, "unit": "µg/mL"}, {"measurement": "Osmolality after infusion set", "setting": "[5]", "value": 255, "unit": "mmol/kg"}, {"measurement": "pH after infusion set", "setting": "[5]", "value": 6.93}, {"measurement": "% Remaining after infusion set", "setting": "[6]", "value": "(100.2%)"}, {"measurement": "Concentration after infusion set", "setting": "[6]", "value": 440, "unit": "µg/mL"}, {"measurement": "Osmolality after infusion set", "setting": "[6]", "value": 257, "unit": "mmol/kg"}, {"measurement": "pH after infusion set", "setting": "[6]", "value": 6.91}, {"measurement": "% Remaining after infusion set", "setting": "[7]", "value": "(100.0%)"}, {"measurement": "Concentration after infusion set", "setting": "[7]", "value": 442, "unit": "µg/mL"}, {"measurement": "Osmolality after infusion set", "setting": "[7]", "value": 253, "unit": "mmol/kg"}, {"measurement": "pH after infusion set", "setting": "[7]", "value": 6.90}, {"measurement": "% Remaining after infusion set", "setting": "[8]", "value": "(100.2%)"}, {"measurement": "Concentration after infusion set", "setting": "[8]", "value": 448, "unit": "µg/mL"}, {"measurement": "Osmolality after infusion set", "setting": "[8]", "value": 253, "unit": "mmol/kg"}, {"measurement": "pH after infusion set", "setting": "[8]", "value": 6.91}, {"measurement": "% Remaining after infusion set", "setting": "[9]", "value": "(100.4%)"}, {"measurement": "Concentration after infusion set", "setting": "[9]", "value": 2535, "unit": "µg/mL"}, {"measurement": "Osmolality after infusion set", "setting": "[9]", "value": 248, "unit": "mmol/kg"}, {"measurement": "pH after infusion set", "setting": "[9]", "value": 6.10}, {"measurement": "% Remaining after infusion set", "setting": "[10]", "value": "(100.4%)"}, {"measurement": "Concentration after infusion set", "setting": "[10]", "value": 2540, "unit": "µg/mL"}, {"measurement": "Osmolality after infusion set", "setting": "[10]", "value": 247, "unit": "mmol/kg"}, {"measurement": "pH after infusion set", "setting": "[10]", "value": 5.99}, {"measurement": "% Remaining after infusion set", "setting": "[11]", "value": "(101.4%)"}, {"measurement": "Concentration after infusion set", "setting": "[11]", "value": 2545, "unit": "µg/mL"}, {"measurement": "Osmolality after infusion set", "setting": "[11]", "value": 251, "unit": "mmol/kg"}, {"measurement": "pH after infusion set", "setting": "[11]", "value": 6.00}, {"measurement": "% Remaining after infusion set", "setting": "[12]", "value": "(99.2%)"}, {"measurement": "Concentration after infusion set", "setting": "[12]", "value": 2480, "unit": "µg/mL"}, {"measurement": "Osmolality after infusion set", "setting": "[12]", "value": 261, "unit": "mmol/kg"}, {"measurement": "pH after infusion set", "setting": "[12]", "value": 6.01}, {"measurement": "solution appearance", "setting": "dextrose and sodium chloride, all three concentrations, after 24 hours in bags and after elution", "value": "clear and colorless solutions"}, {"measurement": "decrease of pH over 24 hours in the infusion bags", "setting": "sodium chloride, approximately 0.28 mg/mL 25HC3S", "value": "~0.5", "unit": "pH unit"}]}
